ChEMBL document CHEMBL3232901, “Design, synthesis, and pharmacological evaluation of fluorinated tetrahydrouridine derivatives as inhibitors of cytidine deaminase” (J Med Chem, 2014)

How the values were obtained:
[1] = Chemical stability in simulated gastric fluid assessed as compound remaining after 10 mins at pH 1.2 at 37 degC; format: ADME, physicochemical, Stomach; settings: read-out: Stability
[2] = Chemical stability in simulated gastric fluid assessed as compound remaining after 2 hrs at pH 1.2 at 37 degC; format: ADME, physicochemical, Stomach; settings: read-out: Stability

## O=C1NC(O)CCN1[C@@H]1O[C@H](CO)[C@@H](O)[C@H]1O (mixture of isomers) [TETRAHYDROURIDINE]
[1]
  remaining at 10 min: 50%
[2]
  remaining at 2 h: 15%
